Data reported in patent US20220251109A1, “OXAAZAQUINAZOLINE-7(8H)-KETONE COMPOUND, PREPARATION METHOD THEREFOR AND PHARMACEUTICAL APPLICATION THEREOF” (GENFLEET THERAPEUTICS (SHANGHAI) INC., priority 2019, published 2022).
Where two headings read alike, the source gives them in different places.

Assays:
Assay type in all cases: cell-based, human
[1] = system: A549 cells (Kras G12S mutation); experiment: Cell proliferation inhibition experiment, 3D model, CellTiter-Glo (A549); conditions: A549, 3D sphere plate, 5 days, 2% FBS
Procedure: (§1) NCI-H358 was a human non-small cell lung cancer cell line with Kras G12C mutation, cultured in 10% FBS RPMI-1640 medium; A549 was a human lung adenocarcinoma cell line with Kras G12S mutation, cultured in 10% FBS F-12K medium. The cells in the logarithmic growth phase was taken, digested with trypsin EDTA, collected and counted, and H358 was adjusted to 1.8E4 cells/ml using 2% FBS RPMI-1640 medium, and A549 was adjusted to 8.9E3 cells/ml using 2% FBS F-12K medium; 800 (45 μl) H358 or 400 (45 μl) A549 cells were seeded in a 384-well sphere plate respectively, cultured overnight to establish a 3D cell model. DMSO was used to prepare 1000× compound 3.16-fold gradient concentration stock solution, and 2% FBS medium was used to dilute 100-fold to 10× compound stock solution. On the second day after cell seeding, 5 μl 10× compound stock solution was added to each cell culture well, the final concentration was 1×, and DMSO content was 0.1%. DMSO was used as the experimental control (control) and 2% FBS medium as the blank control (blank). After the compound and cells were added and cultured for 5 days, 25 μl CellTiter-Glo working solution was added to each well, mixed at 400 rpm and incubated for 30 minutes. After 30 minutes at room temperature, 40 μl of the mixture was transferred to a 384-well plate with a non-transparent white bottom, the luminescence chemiluminescence value was read, and the cells proliferation inhibition rate IR (%)=(RLU control-RLU compound)/(RLU control-RLU blank)×100% was calculated, Prism 6 four-parameter method was used to fit the compound's gradient dilution concentration and the corresponding cell proliferation inhibition rate, and the IC50 value was calculate.

[2] = system: MIA PaCa-2 cells (Kras G12C mutation); experiment: Cell proliferation inhibition experiment, 3D model, CellTiter-Glo (MIA PaCa-2); conditions: MIA PaCa-2, 3D sphere plate, 5 days, read-out: MIA-PaCa2 IC50
Procedure: MIA PaCa2 was a human pancreatic cancer cell line with Kras G12C mutation, cultured in 10% FBS+2.5% Horse serum DMEM medium; A549 was a human lung adenocarcinoma cell line with Kras G12S mutation, cultured in 10% FBS F-12K medium. The cells in the logarithmic growth phase were taken, digested with enzyme EDTA, collected, counted and 200 MIA PaCa-2 or 400 A549 cells were seeded in a 384-well sphere plate respectively, cultured overnight to establish a 3D cell model. DMSO was used to prepare 1000× compound 3.16-fold gradient concentration stock solution, and medium was used to dilute 100-fold to 10× compound stock solution. On the second day after cell seeding, 10× compound stock solution was added to each cell culture well, the final concentration was 1×, and DMSO content was 0.1%. DMSO was used as an experimental control (control), medium as the blank control (blank). After the compound and cells were added and cultured for 5 days, 30 μl CellTiter-Glo working solution was added to each well, mixed and incubated for 30 minutes. After 30 minutes at room temperature, 40 μl of the mixture was transferred to a 384-well plate with a non-transparent white bottom, the luminescence chemiluminescence value was read, and the cells proliferation inhibition rate IR (%)=(RLU control-RLU compound)/(RLU control-RLU blank)×100% was calculated, XLFit four-parameter method was used to fit the compound's gradient dilution concentration and the corresponding cell proliferation inhibition rate, and the IC50 value was calculate.

[3] = system: NCI-H358 cells (Kras G12C mutation); experiment: Cell proliferation inhibition experiment, 3D model, CellTiter-Glo (NCI-H358); conditions: NCI-H358, 3D sphere plate, 5 days, 2% FBS
Procedure: as §1

[4] = Homo sapiens, MIA PaCa-2, 120 h

SMILES | IC50 [1] [µM] | IC50 [2] [µM] | IC50 [3] [µM] | IC50 ([1]; Homo sapiens, A549, 120 h) [µM] | IC50 [2, 4] [µM] | IC50 ([3]; Homo sapiens, NCI-H358, 120 h) [µM]
C=CC(=O)N1CCN2c3nc(=O)n(-c4ccccc4C(C)C)c4cc(-c5c(C)ccc6[nH]ncc56)c(Cl)c(c34)OC[C@@H]2C1 (single isomer, unassigned) [Compound Z20-3] | > 10 | 0.0005 | 0.0006 |  |  | 
C=CC(=O)N1CCN2c3nc(=O)n(-c4c(C)ccnc4C(C)C)c4nc(-c5ccccc5OC(F)(F)F)c(Cl)c(c34)OC[C@@H]2C1 [Compound Z64] |  |  |  | > 10 | 0.009 | 0.007
C=CC(=O)N1CCN2c3nc(=O)n(-c4ccccc4C(C)C)c4cc(-c5c(C)ccc6[nH]ncc56)c(Cl)c(c34)OC[C@@H]2C1 [Compound Z20] |  |  |  | 3.76 | 0.015 | 0.005
C=CC(=O)N1CCN2c3nc(=O)n(-c4c(C)ccnc4C(C)C)c4cc(-c5cccnc5N)c(Cl)c(c34)OC[C@H]2C1 [Compound Z41] |  |  |  | > 10 | 0.344 | 0.318
C=CC(=O)N1CCN2c3nc(=O)n(-c4c(C)ccnc4C(C)C)c4cc(-c5c(C)ccc6[nH]ncc56)c(Cl)c(c34)OC[C@H]2C1 (atropisomer, axis not shown) [Compound Z30-2-2] | > 10 | 0.004 | 0.003 |  |  | 
C=CC(=O)N1CCN2c3nc(=O)n(-c4c(C)ccnc4C(C)C)c4nc(-c5cccc(F)c5F)c(Cl)c(c34)OC[C@@H]2C1 [Compound Z47] |  | 0.009 | 0.003 | > 10 |  | 
C=CC(=O)N1CCN2c3nc(=O)n(-c4c(C)ccnc4C4CC4)c4nc(-c5ccccc5F)c(Cl)c(c34)OC[C@H]2C1 (single isomer, unassigned) [Compound Z102-2] | 12.2 | 0.083 | 0.027 |  |  | 
C=CC(=O)N1CCN2c3nc(=O)n(-c4c(C)ccnc4C(C)C)c4cc(-c5c(C)ccc6[nH]ncc56)c(Cl)c(c34)OC[C@H]2C1 (single isomer, unassigned) [Compound Z30-1] | 25 | 0.078 | 0.065 |  |  | 
C=CC(=O)N1CCN2c3nc(=O)n(-c4c(C)ccnc4C(C)C)c4cc(-c5c(O)cccc5F)c(Cl)c(c34)OC[C@H]2C1 [Compound Z29] |  | 0.014 | 0.007 | 12.6 |  | 
C=CC(=O)N1CCN2c3nc(=O)n(-c4c(C)ccnc4C(C)C)c4nc(-c5c(F)ccc(Cl)c5O)c(Cl)c(c34)OC[C@@H]2C1 [Compound Z52, (5 aS)-7-acryloyl-3-chloro-2-(3-chloro-6-fluoro-2-hydroxyphenyl)-12-(2-isopropyl-4-methylpyridin-3-yl)-5,5a,6,7,8,9-hexahydro-4-oxo-1,7,9a,10,12-pentazabenzo[4,5]cyclohepta[1,2,3-de]naphthalen-11 (12H)-one] |  |  |  | > 10 | 0.023 | 0.004
C=CC(=O)N1CCN2c3nc(=O)n(-c4c(C)ccnc4C(C)C)c4cc(-c5c(O)cccc5F)c(Cl)c(c34)OC[C@H]2C1 (single isomer, unassigned) [Compound Z29-4] | > 10 | 0.358 | 0.044 |  |  | 
C=CC(=O)N1CCN2c3nc(=O)n(C4CC4)c4cc(-c5c(C)ccc6[nH]ncc56)c(Cl)c(c34)OC[C@@H]2C1 (single isomer, unassigned) [Compound Z17-2] |  |  |  | 12.8 | 0.033 | 0.037
C=CC(=O)N1CCN2c3nc(=O)n(-c4c(C)ccnc4C(C)C)c4nc(-c5c(O)cccc5F)cc(c34)OC[C@@H]2C1 (single isomer, unassigned) [Compound Z36-2] |  |  |  | 14.4 | 0.121 | 0.068
C=CC(=O)N1CCN2c3nc(=O)n(-c4c(C)ccnc4C(C)C)c4cc(-c5c(C)ccc6[nH]ncc56)cc(c34)OC[C@@H]2C1 (single isomer, unassigned) [Compound Z19-2] | 12 |  | 0.025 |  | 0.024 | 
C=CC(=O)N1CCN2c3nc(=O)n(-c4c(C)ncnc4C(C)C)c4nc(-c5c(O)cccc5F)c(F)c(c34)OC[C@H]2C1 (single isomer, unassigned) [Compound Z101-1] |  | 0.056 | 0.042 | > 10 |  | 
C=CC(=O)N1CCN2c3nc(=O)n(-c4c(C)ccnc4C(C)C)c4nc(-c5c(F)cccc5F)c(Cl)c(c34)OC[C@@H]2C1 [Compound Z68] |  |  |  | > 10 | 0.009 | 0.003
C=CC(=O)N1CCN2c3nc(=O)n(-c4c(C)ncnc4C4CC4)c4nc(-c5c(O)cccc5F)c(Cl)c(c34)OC[C@H]2C1 [Compound Z103] |  |  |  | > 30 | 0.018 | 0.007
C=CC(=O)N1CCN2c3nc(=O)n(-c4c(C)ccnc4C(C)C)c4cc(-c5c(C)ccc6[nH]ncc56)c(Cl)c(c34)OC[C@@H]2C1 (single isomer, unassigned) [Compound Z26-1] |  | 0.074 | 0.031 | 13.8 |  | 
C=CC(=O)N1CCN2c3nc(=O)n(-c4c(C)ccnc4C(C)C)c4cc(-c5c(O)cccc5F)cc(c34)OC[C@@H]2C1 (atropisomer, axis not shown) [Compound Z15-2] | 29.8 | 0.261 | 0.149 |  |  | 
C=CC(=O)N1CCN2c3nc(=O)n(-c4c(C)ccnc4C(C)C)c4cc(-c5c(O)cccc5F)c(Cl)c(c34)OC[C@H]2C1 (single isomer, unassigned) [Compound Z29-1] | > 10 | 0.008 | 0.003 |  |  | 
[2H]C([2H])([2H])Oc1cccc(F)c1-c1nc2c3c(nc(=O)n2-c2c(C)ccnc2C(C)C)N2CCN(C(=O)C=C)C[C@@H]2COc3c1F (single isomer, unassigned) [Compound Z100-1] |  |  | 0.002 | 19.7 | 0.004 | 
C=CC(=O)N1CCN2c3nc(=O)n(-c4c(C)ccnc4C(C)C)c4cc(-c5c(C)ccc6[nH]ncc56)c(Cl)c(c34)OC[C@@H]2C1 (atropisomer, axis not shown) [Compound Z26-2-2] | > 10 | 0.003 | 0.002 |  |  | 
C=CC(=O)N1CCN2c3nc(=O)n(-c4cccnc4C(C)C)c4cc(-c5c(C)ccc6[nH]ncc56)c(Cl)c(c34)OC[C@@H]2C1 [Compound Z39] |  |  |  |  | 0.444 | 
C=CC(=O)N1CCN2c3nc(=O)n(-c4c(C)ccnc4C(C)C)c4cc(-c5c(C)ccc6[nH]ncc56)cc(c34)OC[C@@H]2C1 [Compound Z19, (S)-2-acryloyl-8-(2-isopropyl-4-methylpyridin-3-yl)-10-(5-methyl-1H-indazol-4-yl)-1,2,3,4,13,13a-hexahydropyrazino[2′,1′:3,4][1,4]oxazepine[5,6,7-de]quinazolin-7 (8H)-one] | 46.4 |  | 0.068 |  |  | 
C=CC(=O)N1CCN2c3nc(=O)n(C4CC4)c4cc(-c5c(O)cccc5F)cc(c34)OCCC2C1 (stereo not drawn) [Compound Z28] |  |  |  | > 10 |  | 0.184
C=CC(=O)N1CCN2c3nc(=O)n(-c4c(C)ccnc4C(C)C)c4cc(-c5c(O)cccc5F)cc(c34)OC[C@@H]2C1 [Compound Z15, (S)-2-acryloyl-10-(2-fluoro-6-hydroxyphenyl)-8-(2-isopropyl-4-methylpyridin-3-yl)-1,2,3,4,13,13a-hexahydropyrazino[2′,1′:3,4][1,4]oxazepine[5,6,7-de]quinazolin-7 (8H)-one] | > 10 |  | 0.036 |  |  | 
C=CC(=O)N1CCN2c3nc(=O)n(C4CC4)c4cc(-c5c(C)ccc6[nH]ncc56)cc(c34)OCCC2C1 (stereo not drawn) [Compound Z21, 2-acryloyl-8-cyclopropyl-10-(5-methyl-1H-indazol-4-yl)-1,3,4,13,14,14a-hexa hydro-2H-pyrazino[1′,2′:5,6][1,5]oxazolidine[4,3,2-de]quinazolin-7 (8H)-one] |  |  |  | > 10 |  | 0.283
